Source: patent US9518065B2, “IRAK inhibitors and uses thereof” (NIMBUS IRIS, INC., priority 2013, dated 2016)
Where two headings read alike, the source gives them in different places.

Key:
[1] = tested on: TNFα and IL8 production in THP-1 cells; assay: LPS induced cytokine (TNFα and IL8) production assay in THP-1 cells; assay type: cell-based; conditions: 300 ng/mL LPS
Outline: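 THP-1 cells (100,000/well) pre-incubated 1 h with compound (final 0.3% DMSO), then stimulated with 300 ng/mL LPS. TNFα and IL8 in supernatant measured by HTRF at 5 h; IL8 and cell viability also assessed at 16 h.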

[2] = tested on: cytokine production in whole blood; assay: In vitro LPS/R848-induced cytokine production assay in whole blood; assay type: cell-based, human; conditions: read-out: TNF-α production IC50
Procedure: Compounds of the present invention were also studied in in vitro LPS/R848/CpG-induced cytokine production assays. Exemplary protocols follow.
Whole Blood (LPS): 13 mL of whole blood solution was prepared by combining whole blood in no serum medium with a ratio of 1:1. Cells were seeded in a 96-well plate with 130 ul/well of the cell suspension according to the plate map. 9 ul of 30 mM compound solution was added into the wells in the assigned rows, then serial solutions with 4× dilutions were made. That is, add 9 uL of 100% DMSO into each of the rest wells and take 3 uL of compound solution from the one-step higher concentration solution and mix well with the DMSO. For the second compound master plate, 196 uL of the growth medium (no serum media) were added into each of the wells and 4 uL of the compound solution from the first compound master plate was added and mixed with the media. Cells were treated for 0.5 h by adding 20 uL of the compound and the control solutions prepared in the second master plate to each well according to the plate map. Cells were stimulated with a) 0.1 ug/mL of LPS overnight for whole blood assay; b) 0.01 ug/mL of LPS overnight for hWBC assay. Plates were sealed with sealing films and the plates were centrifuged at 3000 rpm at 4 degrees C. for 5 min. The supernatants were transferred, and 100 ul of working Capture antibody solution was added to each well. The plates were sealed and incubated overnight at RT. IL-6, IFN-α or TNF-α detection antibody labeled with biotin: Added 100 uL of the Detection Antibody solution to each well. Covered the plate and incubated for 2 h at RT. Added 100 uL of Streptavidin-HRP solution to each well. Covered the plate and incubate for 20 min at RT in dark. Added 100 uL of Substrate Solution to each well. Incubated for 20 min at RT in dark. Added 50 uL of Stop Solution to each well. Gently tapped the plate to ensure thorough mixing. Determined the optical density of each well immediately, using a microplate reader set to 450 nm and also read at 540 nm or 570 nm for correction if wavelength correction is not available.

[3] = tested on: LPS induced TNF production; assay: In vivo LPS-induced cytokine production in rats; set-up: species or system female Lewis rats; conditions: for drug concentration corresponding to the minimal efficacious dose: 10 mg/kg PO; for minimal efficacious dose for inhibition of LPS induced TNF production in vivo: PO in 0.5% methylcellulose, LPS 2 hours after dose, serum TNF-α one hour later
Procedure: Compounds of the present invention were also assayed in vivo to determine their inhibitory effect on LPS-induced cytokine production. In vivo studies of LPS-induced cytokine production was conducted in female Lewis rats (n=10 each). Rats were dosed with compound at 30, 10, 3, or 1 mg/kg, 5 mg/kg dexamethasone, or vehicle, dosed PO in 0.5% methylcellulose. After 2 hours, rats were administered LPS in PBS at 0.1 mg/mL, 1 mL/kg. One hour later, rats were bled and serum was analyzed for TNF-α produced by ELISA (eBioscience).

[4] = Homo sapiens, 5 hours, read-out: TNFα production IC50
[5] = Homo sapiens, 16 hours, read-out: IL8 (16 h) production IC50
[6] = Homo sapiens, LPS 0.1 uM, overnight

IC50 ([1]; 5 hours, read-out: TNFα production IC50) [nM] | IC50 ([1]; 16 hours, read-out: IL8 (16 h) production IC50) [nM] | IC50 ([2]; LPS 0.1 uM, overnight) [nM] | IC50 ([2]; R848 1 uM, 20 h) [nM] | drug concentration corresponding to the minimal efficacious dose [3] [nM] | IC50 [1, 4] [nM] | IC50 [1, 5] [nM] | IC50 [2, 6] [nM] | IC50 ([2]; Homo sapiens, R848 1 uM, 20 h) [nM] | Molecule | minimal efficacious dose for inhibition of LPS induced TNF production in vivo [3] [mg/kg]
≥ 500 | 250 to 500 | ≥ 5000 | 1000 to 5000 | 6600 | – | – | – | – | 2-methyl-N5-(1-methyl-1H-pyrazol-4-yl)-N7-((1r,4r)-4-morpholinocyclohexyl)thiazolo[5,4-d]pyrimidine-5,7-diamine [Compound I-24] | 10
– | – | – | – | 1600 | ≤ 250 | ≤ 250 | ≥ 5000 | 1000 to 5000 | CCc1nc2c(N[C@H]3CC[C@H](N4CCOCC4)CC3)nc(Nc3cnn(C)c3)nc2s1 [Compound I-7, 2-ethyl-N5-(1-methyl-1H-pyrazol-4-yl)-N7-((1r,4r)-4-morpholinocyclohexyl)-thiazolo[5,4-d]pyrimidine-5,7-diamine] | 10
– | – | – | – | 1050 | ≤ 250 | ≤ 250 | 1000 to 5000 | 250 to 1000 | CCc1nc2c(N[C@H]3CC[C@H](N4CCOCC4)CC3)nc(Nc3cnn(C4CCOCC4)c3)nc2s1 [Compound I-9, 2-ethyl-5-N-[1-(oxan-4-yl)-1H-pyrazol-4-yl]-7-N—[trans-4-(morpholin-4-yl)cyclohexyl]-[1,3]thiazolo[5,4-d]pyrimidine-5,7-diamine] | 10
